Assay results taken from patent US10238670B2, “9-aminomethyl minocycline compounds and methods of use thereof in urinary tract infection (UTI) treatment” (Paratek Pharmaceuticals, Inc., priority 2016, dated 2019).

Key:
Assay in all cases: In vitro MIC, 2010 surveillance isolates
[1] = system: E. coli ESBL−; format: cell-based, Escherichia coli; details: for % R (resistance): Eucast breakpoints
[2] = system: E. coli ESBL+; format: cell-based, Escherichia coli; details: for % R (resistance): Eucast breakpoints
[3] = system: K. pneumoniae ESBL−; format: cell-based, Klebsiella pneumoniae
[4] = system: K. pneumoniae ESBL+; format: cell-based, Klebsiella pneumoniae; details: for % R (resistance): Eucast breakpoints
[5] = system: K. oxytoca; format: cell-based; details: for % R (resistance): Eucast breakpoints
[6] = system: E. cloacae CeftazS; format: cell-based; details: for % R (resistance): Eucast breakpoints
[7] = system: E. cloacae CeftazR; format: cell-based; details: for % R (resistance): Eucast breakpoints
[8] = system: Enterobacter spp; format: cell-based; details: for % R (resistance): Eucast breakpoints
[9] = system: A. baumanii; format: cell-based
[10] = system: Acinetobacter spp; format: cell-based
[11] = system: MSSA; format: cell-based
[12] = system: MRSA; format: cell-based
[13] = system: MS CoNS; format: cell-based, Coagulase-Negative Staphylococcus
[14] = system: MR CoNS; format: cell-based, Coagulase-Negative Staphylococcus
[15] = system: E. faecalis VS; format: cell-based
[16] = system: E. faecalis VNS; format: cell-based
[17] = system: E. faecium VS; format: cell-based; details: for % R (resistance): Eucast breakpoints
[18] = system: E. faecium VNS; format: cell-based; details: for % R (resistance): Eucast breakpoints

amoxicillin-clavulanic acid [Amox/clav]
% R (resistance) ([1]; Asia/Pac): 14.2% | MIC90 ([1]; Asia/Pac, N=282): > 8 µg/mL | % R (resistance) ([1]; Europe): 17.7% | MIC90 ([1]; Europe, N=1533): > 8 µg/mL | MIC90 ([1]; L. Amer, N=389): > 8 µg/mL | MIC90 ([1]; N America, N=1172): > 8 µg/mL | % R (resistance) ([2]; Asia/Pac): 39.3% | MIC90 ([2]; Asia/Pac, N=219): > 8 µg/mL | % R (resistance) ([2]; Europe): 70.1% | MIC90 ([2]; Europe, N=274): > 8 µg/mL | MIC90 ([2]; L. Amer, N=168): > 8 µg/mL | MIC90 ([2]; N America, N=134): > 8 µg/mL | % R (resistance) ([3]; Asia/Pac, Eucast breakpoints): 3.7% | MIC90 ([3]; Asia/Pac, N=189): 8 µg/mL | % R (resistance) ([3]; Europe, Eucast breakpoints): 7.2% | MIC90 ([3]; Europe, N=361): 8 µg/mL | MIC90 ([3]; L. Amer, N=160): 8 µg/mL | % R (resistance) ([3]; N America, CLSI breakpoints): 0% | MIC90 ([3]; N America, N=671): 4 µg/mL | % R (resistance) ([4]; Asia/Pac): 72.6% | MIC90 ([4]; Asia/Pac, N=124): > 8 µg/mL | % R (resistance) ([4]; Europe): 84.1% | MIC90 ([4]; Europe, N=151): > 8 µg/mL | MIC90 ([4]; L. Amer, N=209): > 8 µg/mL | MIC90 ([4]; N America, N=108): > 8 µg/mL | % R (resistance) ([5]; Asia/Pac): 23.5% | MIC90 ([5]; Asia/Pac, N=17): > 8 µg/mL | % R (resistance) ([5]; Europe): 14.6% | MIC90 ([5]; Europe, N=158): > 8 µg/mL | MIC90 ([5]; L. Amer, N=25): > 8 µg/mL | MIC90 ([5]; N America, N=177): > 8 µg/mL | % R (resistance) ([6]; Asia/Pac): 94% | MIC90 ([6]; Asia/Pac, N=100): > 8 µg/mL | % R (resistance) ([6]; Europe): 92.3% | MIC90 ([6]; Europe, N=183): > 8 µg/mL | MIC90 ([6]; L. Amer, N=57): > 8 µg/mL | MIC90 ([6]; N America, N=210): > 8 µg/mL | % R (resistance) ([7]; Asia/Pac): 100% | MIC90 ([7]; Asia/Pac, N=63): > 8 µg/mL | % R (resistance) ([7]; Europe): 100% | MIC90 ([7]; Europe, N=72): > 8 µg/mL | MIC90 ([7]; L. Amer, N=42): > 8 µg/mL | MIC90 ([7]; N America, N=77): > 8 µg/mL | % R (resistance) ([8]; Asia/Pac): 96.2% | MIC90 ([8]; Asia/Pac, N=52): > 8 µg/mL | % R (resistance) ([8]; Europe): 91.5% | MIC90 ([8]; Europe, N=82): > 8 µg/mL | MIC90 ([8]; L. Amer, N=42): > 8 µg/mL | MIC90 ([8]; N America, N=101): > 8 µg/mL | MIC90 ([9]; Asia/Pac, N=275): > 8 µg/mL | MIC90 ([9]; Europe, N=145): > 8 µg/mL | MIC90 ([9]; L. Amer, N=275): > 8 µg/mL | MIC90 ([9]; N America, N=154): > 8 µg/mL | MIC90 ([10]; Europe, N=43): > 8 µg/mL | MIC90 ([10]; N America, N=42): > 8 µg/mL | % R (resistance) ([11]; Asia/Pac, Eucast breakpoints): 0% | MIC90 ([11]; Asia/Pac, N=641): ≤ 1 µg/mL | % R (resistance) ([11]; Europe, Eucast breakpoints): 0% | MIC90 ([11]; Europe, N=2109): ≤ 1 µg/mL | % R (resistance) ([11]; L. Amer, CLSI breakpoints): 0% | MIC90 ([11]; L. Amer, N=590): ≤ | % R (resistance) ([11]; N America, CLSI breakpoints): 0.1% | MIC90 ([11]; N America, N=2373): ≤ 1 µg/mL | % R (resistance) ([12]; Asia/Pac, Eucast breakpoints): 100% | MIC90 ([12]; Asia/Pac, N=428): > 8 µg/mL | % R (resistance) ([12]; Europe, Eucast breakpoints): 100% | MIC90 ([12]; Europe, N=750): > 8 µg/mL | % R (resistance) ([12]; L. Amer, CLSI breakpoints): 100% | MIC90 ([12]; L. Amer, N=506): > 8 µg/mL | % R (resistance) ([12]; N America, CLSI breakpoints): 100% | MIC90 ([12]; N America, N=2508): > 8 µg/mL | % R (resistance) ([13]; Asia/Pac, Eucast breakpoints): 0% | MIC90 ([13]; Asia/Pac, N=18): ≤ 1 µg/mL | % R (resistance) ([13]; Europe, Eucast breakpoints): 0% | MIC90 ([13]; Europe, N=185): ≤ 1 µg/mL | % R (resistance) ([13]; L. Amer, CLSI breakpoints): 0% | MIC90 ([13]; L. Amer, N=67): ≤ 1 µg/mL | % R (resistance) ([13]; N America, CLSI breakpoints): 0% | MIC90 ([13]; N America, N=191): ≤ 1 µg/mL | % R (resistance) ([14]; Asia/Pac, Eucast breakpoints): 100% | MIC90 ([14]; Asia/Pac, N=77): > 8 µg/mL | % R (resistance) ([14]; Europe, Eucast breakpoints): 100% | MIC90 ([14]; Europe, N=510): > 8 µg/mL | % R (resistance) ([14]; L. Amer, CLSI breakpoints): 100% | MIC90 ([14]; L. Amer, N=301): > 8 µg/mL | % R (resistance) ([14]; N America, CLSI breakpoints): 100% | MIC90 ([14]; N America, N=461): 8 µg/mL | % R (resistance) ([15]; Asia/Pac, Eucast breakpoints): 0% | MIC90 ([15]; Asia/Pac, N=214): ≤ 1 µg/mL | % R (resistance) ([15]; Europe, Eucast breakpoints): 0% | MIC90 ([15]; Europe, N=669): ≤ 1 µg/mL | % R (resistance) ([15]; L. Amer, CLSI breakpoints): 0% | MIC90 ([15]; L. Amer, N=290): ≤ 1 µg/mL | % R (resistance) ([15]; N America, CLSI breakpoints): 0% | MIC90 ([15]; N America, N=863): ≤ 1 µg/mL | range of MICs (N <10, shown instead of MIC90) ([16]; Asia/Pac, N=1): ≤1 | % R (resistance) ([16]; Europe, Eucast breakpoints): 0% | range of MICs (N <10, shown instead of MIC90) ([16]; Europe, N=8): ≤1-2 | % R (resistance) ([16]; L. Amer, CLSI breakpoints): 0% | range of MICs (N <10, shown instead of MIC90) ([16]; L. Amer, N=7): ≤1-2 | % R (resistance) ([16]; N America, CLSI breakpoints): 0% | MIC90 ([16]; N America, N=38): ≤ 1 µg/mL | % R (resistance) ([17]; Asia/Pac): 91.5% | MIC90 ([17]; Asia/Pac, N=106): > 8 µg/mL | % R (resistance) ([17]; Europe): 93.4% | MIC90 ([17]; Europe, N=303): > 8 µg/mL | MIC90 ([17]; L. Amer, N=51): > 8 µg/mL | MIC90 ([17]; N America, N=115): > 8 µg/mL | % R (resistance) ([18]; Asia/Pac): 100% | MIC90 ([18]; Asia/Pac, N=24): > 8 µg/mL | % R (resistance) ([18]; Europe): 100% | MIC90 ([18]; Europe, N=71): > 8 µg/mL | MIC90 ([18]; L. Amer, N=41): > 8 µg/mL | MIC90 ([18]; N America, N=478): > 8 µg/mL
